Read-outs that look alike come from different tables or passages of the source.
Assays:
[1] = biological target: T1, genotype 1a HCV NS3/4A protease domain A156T (Hepatitis C virus genotype 1a, UniProt P27958, A1182T); test: biochemical; parameters: species or system HCV genotype 1a
T1 construct: single-chain construct of the genotype 1a NS3/4A protease domain; His-tag (cleaved yes); made in house; host or cells: E. coli BL21 (DE3)

genotype 3 viruses = genotype 3 viruses (Q168, T123); cited from earlier work
[2] = system: A156T genotype 1a HCV Con1 luciferase reporter replicon in Huh7 cells; test: Viral replicon-based inhibition assay, A156T variant; type: cell-based, HCV genotype 1a; conditions: Hepatitis C virus, Huh-7, 96 h, read-out: Replicon - IC50, A156T
Description: (§1) Single mutations (R155K, D168A, or A156T) were introduced into the NS3 region of genotype 1a HCV Con1 luciferase reporter replicon using the mega-primer method of mutagenesis. Replicon RNA of each protease variant was introduced into Huh7 cells by electroporation.

[3] = biological target: genotype 1a HCV NS3/4A protease domain (wild-type) (Hepatitis C virus genotype 1a, UniProt A8DG50); test: biochemical; parameters: species or system HCV genotype 1a
[4] = system: D168A genotype 1a HCV Con1 luciferase reporter replicon in Huh7 cells; test: Viral replicon-based inhibition assay, D168A variant; type: cell-based, HCV genotype 1a; conditions: Hepatitis C virus, Huh-7, 96 h, read-out: Replicon - IC50, D168A
Description: as §1

[5] = system: wild-type genotype 1a HCV Con1 luciferase reporter replicon in Huh7 cells; test: Viral replicon-based inhibition assay, wild-type; type: cell-based, HCV genotype 1a; conditions: Hepatitis C virus, Huh-7, luciferase activity 96 hours after electroporation, read-out: Replicon - IC50, WT
Description: . The antiviral activities against the resistant variants trended with changes in binding affinities measured in enzyme inhibition assays (Table 1). […]. Single mutations (R155K, D168A, or A156T) were introduced into the NS3 region of genotype 1a HCV Con1 luciferase reporter replicon using the mega-primer method of mutagenesis. Replicon RNA of each protease variant was introduced into Huh7 cells by electroporation. […]. The drug concentrations required to inhibit replicon replication by 50% (IC50) were calculated directly from the drug inhibition curves.

[6] = system: R155K genotype 1a HCV Con1 luciferase reporter replicon in Huh7 cells; test: Viral replicon-based inhibition assay, R155K variant; type: cell-based, HCV genotype 1a; conditions: Hepatitis C virus, Huh-7, 96 h, read-out: Replicon - IC50, R155K
Description: as §1

[7] = apparent Ki, Morrison equation, 5 nM protease, triplicate, average ± standard deviation, read-out: Binding - Ki, WT

| Compound | Ki [1] [µM] | Efficacy against genotype 3 viruses (genotype 3 viruses) | IC50 [2] [µM] | Ki [3, 7] [µM] | IC50 [4] [µM] | IC50 [5] [µM] | IC50 [6] [µM] | Ki [3] [µM] |
| --- | --- | --- | --- | --- | --- | --- | --- | --- |
| CC(C)(C)OC(=O)N[C@H]1CCCCC/C=C\[C@@H]2C[C@@]2(C(=O)NS(=O)(=O)C2CC2)NC(=O)[C@@H]2C[C@@H](OC(=O)N3Cc4cccc(F)c4C3)CN2C1=O [Danoprevir (ITMN-191), Danoprevir] | 0.0448 ± 0.0036 | reduced efficacy | 0.0057 | 0.001 ± 0.0001 | 0.048 | 0.00024 | > 0.1 |  |
| C=C[C@@H]1C[C@]1(NC(=O)[C@@H]1C[C@@H]2CN1C(=O)[C@H](C(C)(C)C)NC(=O)O[C@@H]1C[C@H]1CCCCCc1nc3ccc(OC)cc3nc1O2)C(=O)NS(=O)(=O)C1CC1 [MK-5172] |  |  | 0.108 |  | 0.013 | 0.00011 | 0.00055 |  |
| CC[C@@H]1C[C@]1(NC(=O)[C@@H]1C[C@@H]2CN1C(=O)[C@H](C(C)(C)C)NC(=O)OCC(C)(C)CCCCc1cccc3c1CN(C3)C(=O)O2)C(=O)NS(=O)(=O)C1CC1 [Vaniprevir (MK-7009), Vaniprevir] |  | reduced efficacy | 0.176 | 0.00074 ± 7e-05 | > 0.4 | 0.00034 | > 0.4 |  |
| CCC[C@H](NC(=O)[C@@H]1[C@H]2CCC[C@H]2CN1C(=O)[C@@H](NC(=O)[C@@H](NC(=O)c1cnccn1)C1CCCCC1)C(C)(C)C)C(=O)C(=O)NC1CC1 [Telaprevir (VX-950), Telaprevir] |  |  | > 50 |  | 0.42 | 1.03 | 5.3 | 0.0344 ± 0.003 |

Reference: publication PMC3406087, “The Molecular Basis of Drug Resistance against Hepatitis C Virus NS3/4A Protease Inhibitors” (PLoS Pathogens, 2012)
